For this test, the target named is human CYCLIC GMP-AMP SYNTHASE (h-cGAS) (Homo sapiens, UniProt Q8N884). Put plainly: IFN-luciferase reporter dose response in HT-DNA-stimulated THP-1 cells; LC-MS/MS of intracellular cGAMP in RAW KO-cGAS cells expressing h-cGAS. Format: cell-based.

These results are taken from paper PMC7200739, “Small molecule inhibition of human cGAS reduces total cGAMP output and cytokine expression in cells” (Scientific Reports, 2020).

What is called IC50 is the concentration that gives 50% inhibition. Lower therefore signals inhibition by little substance.

Sequence of human CYCLIC GMP-AMP SYNTHASE (h-cGAS) (Q8N884 whole entry): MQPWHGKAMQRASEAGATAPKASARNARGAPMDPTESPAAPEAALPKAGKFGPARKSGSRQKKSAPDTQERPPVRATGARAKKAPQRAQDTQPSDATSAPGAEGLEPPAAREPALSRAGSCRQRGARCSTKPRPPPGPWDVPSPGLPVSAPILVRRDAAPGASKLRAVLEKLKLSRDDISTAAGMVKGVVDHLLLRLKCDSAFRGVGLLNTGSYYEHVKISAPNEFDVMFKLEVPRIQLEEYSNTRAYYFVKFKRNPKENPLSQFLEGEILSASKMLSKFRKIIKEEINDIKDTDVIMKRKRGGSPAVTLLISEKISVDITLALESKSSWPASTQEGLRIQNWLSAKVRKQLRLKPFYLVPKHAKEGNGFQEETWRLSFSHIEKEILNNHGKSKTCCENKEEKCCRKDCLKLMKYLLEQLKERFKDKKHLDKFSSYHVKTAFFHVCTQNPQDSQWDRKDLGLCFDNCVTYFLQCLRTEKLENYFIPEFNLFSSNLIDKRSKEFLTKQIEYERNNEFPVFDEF

Substance RU.521 gave an IC50 of about 800 nM.
